Measurements: patent US9844546B2, “Antibody against human HIF hydroxylase” (OXFORD UNIVERSITY INNOVATION LIMITED, priority 2001, dated 2017)

Legend:
HIF-α/pVHL interaction = assay: Interaction of HIF-1α and pVHL.HA reticulocyte IVTTs, anti-HA co-immunoprecipitation; type: biochemical, human; details: 100 μM added to the HIF-1α IVTT
Method: ^35S-Methionine labelled […] subunits and pVHL.HA were produced separately by IVTT (in vitro transcription and translation) in reticulocyte lysates. IVTTs were performed under different conditions, mixed, and assayed for interaction by anti-HA co-immunoprecipitation. These in vitro assays allowed analysis of the HIFα/pVHL interaction using the recombinant proteins.
Labelled HIF-1α and pVHL.HA were generated separately in reticulocyte lysates (IVTT), in the presence or absence of Co (II), desferrioxamine, or Fe(II). Lysates were mixed in various combinations, and interactions assayed by anti-HA immunoprecipitation.
• 1. G. L. Semenza, Genes Dev 14, 1983-91. (2000). • 2. N. V. Iyer, et al., Genes Dev. 12, 149-162 (1997). • 3. E. Maltepe, J. V. Schmidt, D. Baunoch, C. A. Bradfield, M. C. Simon, Nature 386, 403-407 (1997). • 4. G. L. Wang, B.-H. Jiang, E. A. Rue, G. L. Semenza, Proc. Natl. Acad. Sci. USA 92, 5510-5514 (1995). • 5. S. Salceda, J. Caro, J. Biol. Chem. 272, 22642-22647 (1997). • 6. L. E. Huang, J. Gu, M. Schau, H. F. Bunn, Proc. Natl. Acad. Sci. USA 95, 7987-7992 (1998). • 7. M. S. Wiesener, et al., Blood 92, 2260-2268 (1998). • 8. P. H. Maxwell, et al., Nature 399, 271-275 (1999). • 9. K. Iwai, et al., Proc. Natl. Acad. Sci. USA 96, 12436-12441 (1999). • 10. J. Lisztwan, G. Imbert, C. Wirbelauer, M. Gstaiger, W. Krek, Genes Dev 13, 1822-33 (1999). • 11. M. E. Cockman, et al., J Biol Chem (2000). • 12. M. Ohh, et al., Nat Cell Biol 2, 423-7. (2000). • 13. T. Kamura, et al., Proc Natl Acad Sci USA 97, 10430-5. (2000). • 14. K. Tanimoto, Y. Makino, T. Pereira, L. Poellinger, Embo J 19, 4298-309. (2000). • 15. M. A. Goldberg, S. P. Dunning, H. F. Bunn, Science 242, 1412-1415 (1988). • 16. G. L. Wang, G. L. Semenza, Blood 82, 3610-3615 (1993). • 17. G. L. Semenza, Cell 98, 281-284 (1999). • 18. Hypoxia (<0.1% oxygen) was obtained in a workstation with O2, CO2 and temperature control (Ruskinn Technologies, Leeds, UK). For hypoxic harvest, buffers were preincubated in the chamber overnight. […]

[1] = test system: HIF-α prolyl-hydroxylase (HIF-PH) of cell extract; assay: Modifying activity (HIF-PH) of cell extract on HIF substrate (Gal/HIF-1α549-582/VP16 or 19:WT), pVHL capture assay; type: biochemical, mammalian; details: titration, cell extract
Method: The unlabelled HIF-1α substrate was immunopurified on beads, washed, and aliquots incubated under different test conditions in buffer or cell extract. After further washing, the beads were assayed for ability to interact with 35-S labelled pVHL IVTT (21) which was then visualised by fluorography.
The capture of labelled pVHL by different HIF substrates was monitored after exposure to various test conditions.
We went on to test a series of 2-oxoglutarate analogues which act as competitive inhibitors of this class of enzyme (29) for ability to inhibit HIF-PH as assessed by the ability of cell extracts to modify either HIF polypeptide (19:WT) or a HIF fusion protein (Gal/HIF-1α549-582/VP16) so as to promote pVHL capture. […] In one such experiment the effect of N-oxalylglycine on pVHL capture by a biotinylated HIF polypeptides as substrate was monitored. The WT:19 and 19:Pro564Hyp polypeptides described above were used as substrates. […] The effect of dimethyl-oxalyglycine on HIF-1α expression was also studied. HIF-1α immunoblot analysis of extracts of Hep3B and U2OS cells exposed to dimethyl-oxalylgylcine (0, 0.1 or 1.0 mM) for 6 hours was carried out. […]

HIF-1α/pVHL interaction = target: T1, HIF-1α/pVHL interaction (Homo sapiens, UniProt P40337); assay: Polypeptide blocking assay of HIF-1α and pVHL.HA IVTT mixture, anti-HA immunoprecipitation; type: binding; details: cell extract supplemented with Fe(II)
T1 construct: made in house; host or cells: TNT rabbit reticulocyte lysate (Promega), in vitro transcription/translation
T1 sequence (P40337 whole entry): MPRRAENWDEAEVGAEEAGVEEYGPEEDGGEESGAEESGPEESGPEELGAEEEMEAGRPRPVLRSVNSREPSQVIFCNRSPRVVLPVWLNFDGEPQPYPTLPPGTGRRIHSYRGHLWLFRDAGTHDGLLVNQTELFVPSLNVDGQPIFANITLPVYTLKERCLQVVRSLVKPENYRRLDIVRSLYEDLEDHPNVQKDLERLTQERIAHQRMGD
Method: Further studies were performed using synthetic polypeptides as inhibitors of the HIF-1α/pVHL interaction (23). […] Results for a series of polypeptides derived from this domain are summarized in FIG. 1B and implicate a similar minimal interaction domain. […] This polypeptide comprises HIF-1α polypeptide residues 556 to 574 and its ability to block binding following exposure to a variety of direct oxidation conditions was assessed.
We synthesized a polypeptide (HIF-1α residues 556-574), containing a trans-4-hydroxy-S-proline residue at position 564 (19:Pro564Hyp), since the trans-4-hydroxylation is the commonest enzymatic proline oxidation (25). A polypeptide blocking assay was carried out using the 19:Pro564Hyp modified polypeptide and, as a control, the unmodified polypeptide without the trans-4-hydroxylation (19:WT). The 19:WT polypeptide was either incubated with cell extract before the binding assay or was untreated. The 19:Pro564Hyp polypeptide was added to a mixture of HIF-1α and pVHL-HA IVTTs at a concentration of 1, 0.25, 0.05 or 0.01 μM and the cell extract treated or untreated 19:WT polypeptide at a concentration of 0.5 μM. Interaction of HIF-1α with pVHL was then assayed by anti-HA immunoprecipitation. […] A pVHL capture assay was then carried out using biotinylated synthetic polypeptides. The same polypeptides, 19:Pro564Hyp and 19:WT were assessed for the ability to capture wild type or mutant (Pro86His) pVHL. […] In both cases capture was specific for wild type, as opposed to mutant, pVHL.
• 1. G. L. Semenza, Genes Dev 14, 1983-91. (2000). • 2. N. V. Iyer, et al., Genes Dev. 12, 149-162 (1997). • 3. E. Maltepe, J. V. Schmidt, D. Baunoch, C. A. Bradfield, M. C. Simon, Nature 386, 403-407 (1997). • 4. G. L. Wang, B.-H. Jiang, E. A. Rue, G. L. Semenza, Proc. Natl. Acad. Sci. USA 92, 5510-5514 (1995). • 5. S. Salceda, J. Caro, J. Biol. Chem. 272, 22642-22647 (1997). • 6. L. E. Huang, J. Gu, M. Schau, H. F. Bunn, Proc. Natl. Acad. Sci. USA 95, 7987-7992 (1998). • 7. M. S. Wiesener, et al., Blood 92, 2260-2268 (1998). • 8. P. H. Maxwell, et al., Nature 399, 271-275 (1999). • 9. K. Iwai, et al., Proc. Natl. Acad. Sci. USA 96, 12436-12441 (1999). • 10. J. Lisztwan, G. Imbert, C. Wirbelauer, M. Gstaiger, W. Krek, Genes Dev 13, 1822-33 (1999). • 11. M. E. Cockman, et al., J Biol Chem (2000). • 12. M. Ohh, et al., Nat Cell Biol 2, 423-7. (2000). • 13. T. Kamura, et al., Proc Natl Acad Sci USA 97, 10430-5. (2000). • 14. K. Tanimoto, Y. Makino, T. Pereira, L. Poellinger, Embo J 19, 4298-309. (2000). • 15. M. A. Goldberg, S. P. Dunning, H. F. Bunn, Science 242, 1412-1415 (1988). • 16. G. L. Wang, G. L. Semenza, Blood 82, 3610-3615 (1993). • 17. G. L. Semenza, Cell 98, 281-284 (1999). • 18. Hypoxia (<0.1% oxygen) was obtained in a workstation with O2, CO2 and temperature control (Ruskinn Technologies, Leeds, UK). For hypoxic harvest, buffers were preincubated in the chamber overnight. RCC4-VHL.HA, labelling conditions and co-immunoprecipitation assays have been described previously (11); in the current study 12.5 μM MG132 was used for proteasomal inhibition. For standard harvest, the cells were removed from the chamber after hypoxic exposure, prior to cell lysis. Co-immunoprecipitation assays on all lysates were performed at 4° C. under ambient oxygen conditions. […] When programming in hypoxia, reaction mix was preincubated in the workstation for 10 minutes before addition of the DNA template. […]

[2] = test system: cytoplasmic extract-dependent modification of the 5′ VHL E3 target site; assay: Peptide competition of cytoplasmic extract-dependent modification of GAL-HIF-1α 344-553, in vitro VHL E3 ubiquitylation; type: biochemical, human; details: 12.5 μM peptide, RCC4 cytoplasmic extract
Method: The E1 activating enzyme used in ubiquitylation assays was either obtained from Affiniti Research (Exeter, UK) or purified from BL21 (DE3) E. coli transfected with plasmid expressing His6-tagged mouse E1. His6-E1 was purified by Ni^2+-agarose affinity chromatography. After dialysis against phosphate buffered saline, glycerol was added to 10% (vol/vol) and 25 ng/μl aliquots stored at −80° C. Human CDC34 recombinant E2 enzyme was from Affiniti Research (Exeter, UK). VHL E3 was obtained by anti-HA immunoprecipitation from stably transfected 7860-VHLHA cell lysates (Iliopoulos et al). GAL-HIF-1α substrate was prepared by anti-GAL immunoprecipitation from [^35S] methionine-labeled TnT rabbit reticulocyte (Promega) translates. Each 40 μl ubiquitylation reaction consisted of 4 μl of 5 mg/ml ubiquitin, 4 μl of 10×ATP regenerating system (20 mM Tris pH7.5, 10 mM ATP, 10 mM magnesium acetate, 300 mM creatine phosphate, 0.5 mg/ml creatine phosphokinase), 2 μl, E1, 3 μl E2, 6 μl VHL E3 immunopurified on protein G sepharose, 6 μl GAL-HIF-1α substrate immunopurified on agarose beads. Reactions were incubated at 30° C. for 2 h with occasional mixing, stopped by the addition of SDS sample buffer and analysed by SDS-PAGE and autoradiography. Cytoplasmic extract-based ubiquitylation assays have been previously described (Cockman).
It has been shown above that the 3′ VHL E3 target site responds to oxygen level via hydroxylation at proline residue 564. This praline residue forms part of a potential motif conserved between the 5′ and 3′ target sites. Mutation of the corresponding proline residue (P402A) in the 5′ target site also results in functional inactivation. It was possible therefore that proline residue 402 was also a target for regulatory hydroxylation, To test this we asked whether polypeptides corresponding to the 3′ VHL E3 target site could interfere with the cytoplasmic extract-dependent modification of the 5′ VHL E3 target site. […]

Molecule	capture of HIF-1α by pVHL.HA (HIF-α/pVHL interaction)	Fe(II) supplementation giving full activation of modifying activity [1] [µM]	blocking of HIF-1α/pVHL interaction by polypeptide after exposure to cell extract (HIF-1α/pVHL interaction)	competition of cytoplasmic extract effect on VHL-dependent ubiquitylation of GAL 344-553 [2]
[Cl][Fe][Cl] [Fe(II), ferrous chloride, reference compound]	greatly enhanced capture	5	–	–
Pro564Gly: HIF-1α 556-574 polypeptide where the critical proline is mutated to glycine (DLDLEMLAGYIPMDDDFQL; UniProt Q16665 556-574, looked up, fragment P564G)	–	–	did not block	no effect
